Test results taken from ChEMBL document CHEMBL6092161, “First fragment-based screening identifies new chemotypes inhibiting ERAP1-metalloprotease” (Eur J Med Chem, 2024).
pIC50: −log10 of the molar value.

Legend:
[1] = system: Insulin-regulated aminopeptidase (Homo sapiens); experiment: Inhibition of recombinant human IRAP at 300 uM using L-AMC as substrate preincubated for 30 mins followed by substrate addition and measured after 1 hr by fluorescence based assay; conditions: time 90.0 min
[2] = molecular target: T1, Endoplasmic reticulum aminopeptidase 1 (Homo sapiens, UniProt Q9NZ08); experiment: Inhibition of recombinant human ERAP1 using L-AMC as substrate preincubated for 30 mins followed by substrate addition and measured after 1 hr by fluorescence based assay
T1 sequence (Q9NZ08 whole entry): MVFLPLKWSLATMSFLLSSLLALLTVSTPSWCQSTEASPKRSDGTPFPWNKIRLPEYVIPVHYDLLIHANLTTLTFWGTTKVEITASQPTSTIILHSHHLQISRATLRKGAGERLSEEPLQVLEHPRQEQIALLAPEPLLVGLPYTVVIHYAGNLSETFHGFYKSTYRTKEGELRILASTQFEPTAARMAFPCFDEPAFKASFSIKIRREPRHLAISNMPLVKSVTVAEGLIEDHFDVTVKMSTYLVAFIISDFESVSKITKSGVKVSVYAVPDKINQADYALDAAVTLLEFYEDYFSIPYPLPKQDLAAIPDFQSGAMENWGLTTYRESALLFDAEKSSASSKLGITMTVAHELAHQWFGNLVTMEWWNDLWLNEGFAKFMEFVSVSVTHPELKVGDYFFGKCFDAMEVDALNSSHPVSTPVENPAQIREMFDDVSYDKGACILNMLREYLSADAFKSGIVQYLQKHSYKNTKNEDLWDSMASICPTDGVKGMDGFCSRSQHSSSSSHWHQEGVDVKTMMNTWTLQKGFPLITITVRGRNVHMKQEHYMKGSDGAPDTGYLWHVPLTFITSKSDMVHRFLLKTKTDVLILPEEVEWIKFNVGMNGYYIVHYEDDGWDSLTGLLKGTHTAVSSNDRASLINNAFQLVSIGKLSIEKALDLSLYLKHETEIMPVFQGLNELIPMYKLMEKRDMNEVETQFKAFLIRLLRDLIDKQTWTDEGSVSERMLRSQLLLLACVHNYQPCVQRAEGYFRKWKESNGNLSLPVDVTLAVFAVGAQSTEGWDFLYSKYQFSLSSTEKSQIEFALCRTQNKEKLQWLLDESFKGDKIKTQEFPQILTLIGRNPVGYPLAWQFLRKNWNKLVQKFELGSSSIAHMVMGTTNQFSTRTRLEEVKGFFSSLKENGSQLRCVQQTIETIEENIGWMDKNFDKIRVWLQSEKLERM

[3] = molecular target: Endoplasmic reticulum aminopeptidase 2 (Homo sapiens) (UniProt Q6P179); experiment: Inhibition of recombinant human ERAP2 at 300 uM using R-AMC as substrate preincubated for 30 mins followed by substrate addition and measured after 1 hr by fluorescence based assay relative to control; conditions: time 90.0 min
Sequence of Endoplasmic reticulum aminopeptidase 2 (Homo sapiens) (Q6P179 whole entry): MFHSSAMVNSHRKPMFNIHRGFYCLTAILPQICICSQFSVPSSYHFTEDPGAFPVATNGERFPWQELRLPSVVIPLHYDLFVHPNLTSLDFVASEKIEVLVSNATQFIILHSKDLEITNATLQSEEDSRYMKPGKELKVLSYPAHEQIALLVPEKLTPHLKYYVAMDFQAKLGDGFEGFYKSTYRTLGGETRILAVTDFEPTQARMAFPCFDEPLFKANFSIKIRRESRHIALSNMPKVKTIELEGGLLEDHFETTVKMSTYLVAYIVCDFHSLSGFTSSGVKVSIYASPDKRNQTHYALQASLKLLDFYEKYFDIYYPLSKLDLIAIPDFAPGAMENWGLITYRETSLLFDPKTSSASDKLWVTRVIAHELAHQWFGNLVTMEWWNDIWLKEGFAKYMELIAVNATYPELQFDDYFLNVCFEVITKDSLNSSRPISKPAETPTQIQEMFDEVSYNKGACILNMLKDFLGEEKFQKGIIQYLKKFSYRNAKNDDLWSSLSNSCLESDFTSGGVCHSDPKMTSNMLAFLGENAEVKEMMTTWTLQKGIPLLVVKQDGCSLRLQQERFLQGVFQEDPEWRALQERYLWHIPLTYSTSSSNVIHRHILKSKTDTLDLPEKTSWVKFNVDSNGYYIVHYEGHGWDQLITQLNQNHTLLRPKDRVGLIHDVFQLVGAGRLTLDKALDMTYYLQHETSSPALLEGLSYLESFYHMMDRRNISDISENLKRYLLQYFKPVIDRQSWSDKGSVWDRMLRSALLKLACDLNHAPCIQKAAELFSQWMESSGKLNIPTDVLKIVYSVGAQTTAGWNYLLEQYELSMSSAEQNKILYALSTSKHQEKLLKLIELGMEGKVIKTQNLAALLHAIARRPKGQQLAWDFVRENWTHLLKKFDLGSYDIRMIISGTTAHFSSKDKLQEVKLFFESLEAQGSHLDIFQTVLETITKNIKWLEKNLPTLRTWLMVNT

[4] = molecular target: T1, Endoplasmic reticulum aminopeptidase 1; experiment: Inhibition of human ERAP1 using L-SIINFEKL as substrate by LC-MS/MS method
[5] = molecular target: T1, Endoplasmic reticulum aminopeptidase 1; experiment: Inhibition of recombinant human ERAP1 using L-AMC as substrate at 90 uM preincubated for 30 mins followed by substrate addition and measured after 1 hr by fluorescence based assay relative to control; conditions: time 90.0 min
[6] = molecular target: T1, Endoplasmic reticulum aminopeptidase 1; experiment: Inhibition of recombinant human ERAP1 using L-AMC as substrate at 4 uM preincubated for 30 mins followed by substrate addition and measured after 1 hr by fluorescence based assay relative to control; conditions: time 90.0 min
[7] = molecular target: Endoplasmic reticulum aminopeptidase 2 (Homo sapiens) (UniProt Q6P179); experiment: Inhibition of recombinant human ERAP2 at 90 uM using R-AMC as substrate preincubated for 30 mins followed by substrate addition and measured after 1 hr by fluorescence based assay relative to control; conditions: time 90.0 min

Row | Structure (SMILES) | inhibition [1] [%] | pIC50 [2] | also measured
1 | O=C(O)Cc1ccc(S(=O)(=O)N2CCCC2)s1 | 62 | 4.57 | –
2 | O=C1NC(=O)/C(=C/c2ccc(C(=O)O)cc2)N1 | 30 | – | –
3 | CN1C(=O)/C(=C/c2ccc(C(=O)O)cc2)SC1=S | 51 | – | inhibition [3]: 43%
4 | COC(=O)c1ccc(/C=C2\SC(=S)NC2=O)cc1 | < 30 | – | –
5 | O=C(O)c1ccc(CC2SC(=S)NC2=O)cc1 (centres undefined) | < 30 | – | inhibition [3]: < 30%
6 | O=C1NC(=O)/C(=C/c2ccc(C(=O)O)cc2)S1 | 38 | – | –
7 | O=C1NC(=S)S/C1=C\c1ccc(C(=O)O)cc1 | – | 4.71 | pIC50 [4]: 4.54
8 | Nc1[nH]cnc2nc(S)nc1-2 | – | 5.66 | pIC50 [4]: 4.99
9 | O=C(O)Cc1cccc(S(=O)(=O)N2CCCC2)c1 | < 30 | – | –
10 | COc1ccc(Cc2c(O)nc(S)nc2O)cc1 | – | 4.23 | –
11 | O=c1[nH]c(=S)[nH]c(O)c1-c1ccccc1 | – | 4.08 | –
12 | O=C1NC(=O)C(Cc2ccc(C(=O)O)cc2)S1 (centres undefined) | 30 | – | –
13 | O=C(O)Cc1ccc(S(=O)(=O)N2CCCCC2)s1 | 58 | – | inhibition [3]: 38%
14 | CN1C(=O)S/C(=C\c2ccc(C(=O)O)cc2)C1=O | 47 | – | –
15 | CC(C)C[C@H](NC(=O)[C@@H](O)[C@H](N)Cc1ccccc1)C(=O)O | – | – | inhibition [5]: 100%; inhibition [6]: 100%; inhibition [7]: 50%
16 | COC(=O)c1ccc(CC2SC(=S)NC2=O)cc1 (centres undefined) | < 30 | – | –
